Laboratory results taken from ChEMBL document CHEMBL1201862, “PubChem BioAssay data set” (2004).
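48-hour exposure; five concentrations; linearly interpolated endpoints. GI50: concentration for 50% inhibition of growth.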 Activity calls are given as the source filed them. No stated cut-off is given here; in the data, active = GI50 up to about 1.1 µM and inactive = higher. Where a SMILES comes first, the peptide text is derived from it. The star is where a group is joined. Boc = CC(C)(C)OC(=O)*; OBn = c1ccc(CO*)cc1

What was measured:
Test in all cases: DTP human tumour cell line panel, 48 h
ACHN = system: ACHN
BT-549 = system: BT-549
CAKI-1 = system: CAKI-1
HCT-116 = system: HCT-116
HCT-15 = system: HCT-15
IGROV-1 = system: IGROV-1
M14 = system: M14
MCF7 = system: MCF7
MDA-MB-231 = system: MDA-MB-231
MDA-MB-435 = system: MDA-MB-435
NCI-H23 = system: NCI-H23
NCI-H522 = system: NCI-H522
NCI/ADR-RES = system: NCI/ADR-RES
RPMI-8226 = system: RPMI-8226
RXF 393 = system: RXF 393
SK-MEL-2 = system: SK-MEL-2
SN12C = system: SN12C
UO-31 = system: UO-31
HCC 2998 = system: HCC 2998

With Cc1ccc(S(=O)(=O)NCc2cccc([N+](=O)[O-])c2)cc1 the GI50 (ACHN) was > 100 µM (inactive), the GI50 (BT-549) was > 100 µM (inactive) and the GI50 (CAKI-1) was > 100 µM (inactive). The GI50 (HCT-116) was > 100 µM (inactive), the GI50 (HCT-15) was greater than 100 µM and the GI50 (IGROV-1) was > 100 µM (inactive). The GI50 (M14) was > 100 µM (inactive), the GI50 (MCF7) was > 100 µM (inactive) and the GI50 (MDA-MB-231) was > 100 µM (inactive). For the same molecule, the GI50 (MDA-MB-435) was > 100 µM (inactive), the GI50 (NCI-H23) was > 100 µM (inactive) and the GI50 (NCI-H522) was 64.6 µM (inactive). The GI50 (NCI/ADR-RES) was > 100 µM (inactive), the GI50 (RPMI-8226) was > 100 µM (inactive) and the GI50 (RXF 393) was > 100 µM (inactive). The GI50 (SK-MEL-2) was > 100 µM (inactive) and the GI50 (SN12C) was > 100 µM (inactive).
In the case of CC1=NNC(=O)C1C1(C(=O)O)CC(c2c[nH]c3ccccc23)=NC(=S)N1 (stereo not drawn), the GI50 (ACHN) is reported as 33.5 µM (inactive), the GI50 (BT-549) is reported as 96.4 µM (inactive) and the GI50 (CAKI-1) is reported as 43.5 µM (inactive). For the same molecule, the GI50 (HCT-116) was 32.8 µM (inactive), the GI50 (HCT-15) was 42.6 µM and the GI50 (IGROV-1) was 0.224 µM (active). The GI50 (M14) was 16.9 µM (inactive), the GI50 (MDA-MB-231) was 24.3 µM (inactive) and the GI50 (MDA-MB-435) was 35.5 µM (inactive). For the same molecule, the GI50 (NCI-H23) was 22.1 µM (inactive), the GI50 (NCI-H522) was 20 µM (inactive) and the GI50 (NCI/ADR-RES) was 46.8 µM (inactive). For the same molecule, the GI50 (RPMI-8226) was 24.9 µM (inactive), the GI50 (RXF 393) was 28.1 µM (inactive) and the GI50 (SK-MEL-2) was 18.4 µM (inactive). For the same molecule, the GI50 (SN12C) was 40 µM (inactive) and the GI50 (UO-31) was 29.8 µM (inactive).
CC(C)CC(NC(=O)C(Cc1ccccc1)NC(=O)C(Cc1ccccc1)NC(=O)OC(C)(C)C)C(=O)OCc1ccccc1 (stereo not drawn) (Boc-Phe-Phe-Leu-OBn; configuration not given here) was tested, and the GI50 (BT-549) was > 100 µM (inactive), the GI50 (CAKI-1) was > 100 µM (inactive) and the GI50 (HCT-116) was > 100 µM (inactive). For the same molecule, the GI50 (HCT-15) was greater than 100 µM, the GI50 (IGROV-1) was > 100 µM (inactive) and the GI50 (M14) was > 100 µM (inactive). For the same molecule, the GI50 (MCF7) was > 100 µM (inactive), the GI50 (MDA-MB-231) was > 100 µM (inactive) and the GI50 (MDA-MB-435) was > 100 µM (inactive). The GI50 (NCI-H23) was > 100 µM (inactive), the GI50 (NCI-H522) was > 100 µM (inactive) and the GI50 (NCI/ADR-RES) was > 100 µM (inactive). The GI50 (RPMI-8226) was > 100 µM (inactive), the GI50 (RXF 393) was > 100 µM (inactive) and the GI50 (SK-MEL-2) was > 100 µM (inactive). The GI50 (SN12C) was > 100 µM (inactive) and the GI50 (UO-31) was > 100 µM (inactive).
With CCC(=O)Nc1ccc(NCC(=O)Nc2ccc(Cl)cc2)cc1 the GI50 (ACHN) was 13.3 µM (inactive), the GI50 (BT-549) was 21.9 µM (inactive) and the GI50 (CAKI-1) was 14.3 µM (inactive). For the same molecule, the GI50 (HCC 2998) was 13.2 µM (inactive), the GI50 (HCT-116) was 14.4 µM (inactive) and the GI50 (HCT-15) was 14.4 µM. For the same molecule, the GI50 (IGROV-1) was 18.4 µM (inactive), the GI50 (M14) was 15.3 µM (inactive) and the GI50 (MCF7) was 14.3 µM (inactive). The GI50 (MDA-MB-435) was 15.7 µM (inactive), the GI50 (NCI-H23) was 18.5 µM (inactive) and the GI50 (NCI-H522) was 15 µM (inactive). For the same molecule, the GI50 (NCI/ADR-RES) was 33.2 µM (inactive), the GI50 (RPMI-8226) was 21.2 µM (inactive) and the GI50 (RXF 393) was 16.5 µM (inactive). For the same molecule, the GI50 (SK-MEL-2) was 14.8 µM (inactive), the GI50 (SN12C) was 17.1 µM (inactive) and the GI50 (UO-31) was 22.3 µM (inactive).
In the case of CC1(C)CCC2(C(=O)OC3OC(CO)C(O)C(O)C3O)CCC3(C)C(=CCC4C5(C)CCC(OC6OC(CO)C(O)C(O)C6O)C(C)(C)C5CCC43C)C2C1 (stereo not drawn), the GI50 (ACHN) is reported as > 25 µM (inactive), the GI50 (BT-549) is reported as 9.44 µM (inactive) and the GI50 (CAKI-1) is reported as > 25 µM (inactive). The GI50 (HCC 2998) was 4.01 µM (inactive), the GI50 (HCT-116) was 8.61 µM (inactive) and the GI50 (HCT-15) was greater than 25 µM. The GI50 (IGROV-1) was 14.1 µM (inactive), the GI50 (M14) was 14.8 µM (inactive) and the GI50 (MCF7) was 8 µM (inactive). The GI50 (MDA-MB-231) was 9.98 µM (inactive), the GI50 (MDA-MB-435) was 7.16 µM (inactive) and the GI50 (NCI-H23) was 11.9 µM (inactive). For the same molecule, the GI50 (NCI-H522) was 5.36 µM (inactive), the GI50 (RPMI-8226) was 4.18 µM (inactive) and the GI50 (RXF 393) was > 25 µM (inactive). For the same molecule, the GI50 (SK-MEL-2) was 5.45 µM (inactive), the GI50 (SN12C) was 10.9 µM (inactive) and the GI50 (UO-31) was > 25 µM (inactive).
For CCc1cccc(CC)c1Nc1nc(-c2ccccc2-c2ccccc2)cs1, the GI50 (ACHN) was > 100 µM (inactive), the GI50 (BT-549) was 18.2 µM (inactive) and the GI50 (CAKI-1) was > 100 µM (inactive). The GI50 (HCC 2998) was > 100 µM (inactive), the GI50 (HCT-116) was 51.2 µM (inactive) and the GI50 (HCT-15) was 94.2 µM. The GI50 (IGROV-1) was 43.7 µM (inactive), the GI50 (M14) was 92.9 µM (inactive) and the GI50 (MCF7) was 66.2 µM (inactive). The GI50 (MDA-MB-231) was > 100 µM (inactive), the GI50 (MDA-MB-435) was 35 µM (inactive) and the GI50 (NCI-H23) was 93.8 µM (inactive). For the same molecule, the GI50 (NCI-H522) was 84.7 µM (inactive), the GI50 (RPMI-8226) was 30.3 µM (inactive) and the GI50 (RXF 393) was > 100 µM (inactive). For the same molecule, the GI50 (SK-MEL-2) was > 100 µM (inactive), the GI50 (SN12C) was > 100 µM (inactive) and the GI50 (UO-31) was 64.4 µM (inactive).
CC[C@H]1C=CCC[C@@]2(C[C@@H]3CC[C@H]4[C@@H](C(=O)OCCCCCCCCCCCCCCCC(=O)N(CCCN)C[C@@H](O)CCN)[C@@]5(CCC[C@@H](C)O5)NC(=[N+]34)N2)O1 was tested, and the GI50 (ACHN) was 3.9 µM (inactive), the GI50 (BT-549) was 2.01 µM (inactive) and the GI50 (CAKI-1) was 5.64 µM (inactive). For the same molecule, the GI50 (HCC 2998) was 1.73 µM (inactive), the GI50 (HCT-116) was 1.61 µM (inactive) and the GI50 (HCT-15) was greater than 10 µM. For the same molecule, the GI50 (IGROV-1) was 1.74 µM (inactive), the GI50 (M14) was 1.91 µM (inactive) and the GI50 (MCF7) was 1.62 µM (inactive). The GI50 (MDA-MB-435) was 1.55 µM (inactive), the GI50 (NCI-H23) was 1.78 µM (inactive) and the GI50 (NCI-H522) was 1.66 µM (inactive). For the same molecule, the GI50 (NCI/ADR-RES) was > 10 µM (inactive), the GI50 (RPMI-8226) was 1.07 µM (active) and the GI50 (RXF 393) was 1.8 µM (inactive). The GI50 (SK-MEL-2) was 1.7 µM (inactive), the GI50 (SN12C) was 2.96 µM (inactive) and the GI50 (UO-31) was 9.18 µM (inactive).
